Experimental findings from publication PMC8179539, “Query-guided protein–protein interaction inhibitor discovery” (Chemical Science, 2021) are described below.

Several values for one entry are separate records, joined by “and”; a condition that tells them apart may be missing. Identical values can stand only once. Like-named read-outs stand apart in the source and are kept apart here.

For one experiment, the target named is SHANK1-PDZ (Homo sapiens, UniProt Q9Y566). As to the kind of experiment: biochemical.
In another experiment the target is p53/hDM2 (Homo sapiens, UniProt Q00987). Description: competition fluorescence anisotropy assay, displacement of p53 15-31 Flu from hDM2. Type of experiment: binding. As to conditions: for ligand efficiency: LE = 1.4 × pIC50/nHA, from p53/hDM2 fluorescence anisotropy IC50. A general note: Polarisation of emitted light reports the rotation of a fluorescent probe.
A further experiment addresses T1, GKAP/SHANK1-PDZ (Homo sapiens, UniProt Q9Y566).
T1 construct: Shank 1 PDZ domain (656-762) was expressed and purified as described; made in house
T1 sequence (Q9Y566 656-762): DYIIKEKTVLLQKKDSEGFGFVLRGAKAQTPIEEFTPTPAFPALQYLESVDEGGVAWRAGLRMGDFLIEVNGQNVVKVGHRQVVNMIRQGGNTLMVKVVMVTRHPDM
As to the kind of experiment: fluorescence anisotropy competition assay GKAP/SHANK1-PDZ. The format is binding. As to conditions: for IC50: FITC-GKAP 50 nM, SHANK1-PDZ 1 μM, pH 7.4, 20 mM Tris, 150 mM NaCl, 0.01% Triton-X-100.

The next experiment has as its target BID/MCL-1 (Homo sapiens, UniProt Q07820). To be noted: 200 nM MCL-1, 50 nM FITC-Ahx-NOXA-B tracer (Fig. S10).
[1] abbreviates: Table S2, SAR competition assays, Plate Reader II, * lower anisotropy observed, attributed to solubility causing assay interference (7a, 7b, 7c), read-out: IC50.
Setting [2] is: Fig. 4b, same assay, unit inferred, † non-specific interactions observed (11c), read-out: IC50 (Fig. 4b, numbers inside wedges).
[3] abbreviates: Table S2, SAR competition assays, Plate Reader II, read-out: IC50.
The mark [4] stands for this setting: fluorescence anisotropy competition, 150 nM hDM2, 25 nM p53 15-31 Flu, 40 mM phosphate pH 7.4, 200 mM NaCl, 0.02 mg/ml BSA, read-out: IC50.
Where [5] appears, read: Fig. 4b, fluorescence anisotropy competition: 150 nM hDM2 and p53 15-31 Flu, 40 mM phosphate, pH 7.4, 200 mM NaCl, 0.02 mg/ml BSA, > 150 μM, read-out: IC50 (Fig. 4b).

A word on the Kd: it is the equilibrium constant for the complex coming apart. By IC50 is commonly meant the concentration that gives 50% inhibition.

“Ac-EAQTRF-OH [L6F GKAP, Ac-Glu-Ala-Gln-Thr-Arg-Phe-CO2H]” registered a Kd on SHANK1-PDZ of 5 µM. Take `O=C(CC(c1ccc(Cl)s1)c1c[nH]c2ccc(Cl)cc12)NCCc1ccccc1` (stereo not drawn) [7b]: the IC50 on p53/hDM2 (setting [1]) is 13 ± 2 µM.

As for `CCOC(=O)CCNC(=O)c1[nH]c2ccc(Cl)cc2c1C(CC(=O)NCCc1ccccn1)c1ccc(Cl)s1` (stereo not drawn) [11c], the values for the IC50 on p53/hDM2 (setting [2]) and at p53/hDM2 (setting [3]) were 3 µM and 3.2 ± 0.7 µM, respectively. Consider `CC(C(=O)NCCc1ccccn1)C(c1ccc(Cl)s1)c1c[nH]c2ccc(Cl)cc12` (single isomer, unassigned; (+)) [(+)-anti-10], for which the IC50 is 2.9 ± 0.4 µM on p53/hDM2 (setting [3]) and 2.9 µM on p53/hDM2 (setting [4]).

`O=C(CC(c1ccc(Cl)s1)c1c(Br)[nH]c2ccc(Cl)cc12)NCCc1ccccn1` (stereo not drawn) [11d]: the concentration for half-maximal inhibition (IC50) at p53/hDM2 (setting [3]) was 12 ± 9 µM.

Take `O=C(CC(c1ccccc1)c1c[nH]c2ccc(Cl)cc12)NCCc1ccccc1` (stereo not drawn) [9b]: the IC50 on p53/hDM2 (setting [1]) was over 200 µM. In turn, `NS(=O)(=O)c1ccc2c(c1)[C@@H]1C=CC[C@@H]1[C@H](C(=O)O)N2` [Z-1] showed an IC50 at GKAP/SHANK1-PDZ of 390 µM. Moreover, the “ligand efficiency (LE)” value at GKAP/SHANK1-PDZ (from GKAP/SHANK1-PDZ fluorescence anisotropy IC50) worked out at 0.24. `CC(C(=O)NCCc1ccccn1)C(c1ccc(Cl)s1)c1c[nH]c2ccc(Cl)cc12` (stereo not drawn) [syn-10]: the IC50 on p53/hDM2 (setting [3]) is 21 ± 14 µM.

Consider `O=C(CC(c1ccc(Cl)s1)c1c[nH]c2ccc(Cl)cc12)NC1CC1c1ccccc1` (stereo not drawn) [7a], for which the IC50 at p53/hDM2 (setting [1]) was 1.2 ± 1 µM. Take `CC(C)(C)OC(=O)NCCNC(=O)c1[nH]c2ccc(Cl)cc2c1C(CC(=O)NCCc1ccccn1)c1ccc(Cl)s1` (stereo not drawn) [11g]: the IC50 at p53/hDM2 (setting [3]) was over 200 µM. Turning to `CC(C(=O)NCCc1ccccn1)C(c1ccc(Cl)s1)c1c[nH]c2ccc(Cl)cc12` (single isomer, unassigned; (-)) [(−)-anti-10], the IC50 on p53/hDM2 (setting [3]) amounted to 4.6 ± 0.6 µM; at p53/hDM2 (setting [4]) it was 4.6 µM. For `O=C(CC(c1ccc(Cl)s1)c1c[nH]c2ccc(Cl)cc12)NCc1ccccc1` (stereo not drawn) [7c], on p53/hDM2 (setting [1]), the IC50 was found to be 5 ± 2 µM. Further, at p53/hDM2 (competition anisotropy, SAR discussion), the “p53/hDM2 inhibitory activity in words (SAR)” value was “loss of activity”.

In the case of `O=C(CC(c1ccc(Cl)s1)c1c[nH]c2cc(Cl)ccc12)NCCc1ccccn1` (stereo not drawn) [8a], the IC50 is 10 ± 2 µM on p53/hDM2 (setting [1]) and 6 µM on p53/hDM2 (setting [4]). Take `COCCNC(=O)CC(c1ccccc1)c1c[nH]c2ccc(Cl)cc12` (stereo not drawn) [9d]: at p53/hDM2 (setting [1]), the concentration for half-maximal inhibition (IC50) was over 200 µM. Same read-out and setting: with `O=C(CC(c1ccccc1)c1c[nH]c2ccc(Cl)cc12)NCCc1ccccn1` (stereo not drawn) [9a] the figure was over 200 µM. Take `NCCNC(=O)c1[nH]c2ccc(Cl)cc2c1C(CC(=O)NCCc1ccccn1)c1ccc(Cl)s1` (stereo not drawn) [11f]: the IC50 on p53/hDM2 (setting [3]) was found to be 25 ± 4 µM; on p53/hDM2 (setting [4]) it was 25 µM. Compound `O=C(O)c1ccc([N+](=O)[O-])c2c1NC(C(=O)O)[C@H]1CC=C[C@@H]21` (stereo partly drawn) [Z-2, reference compound] had an IC50 at GKAP/SHANK1-PDZ of about 110 µM. As for `O=C(CC(c1ccc(Cl)s1)c1c(C(=O)NCc2ccccc2)[nH]c2ccc(Cl)cc12)NCCc1ccccn1` (stereo not drawn) [11h], at p53/hDM2 (setting [3]), the IC50 is over 200 µM. Regarding `CC(C)(C(=O)NCCc1ccccn1)C(c1ccc(Cl)s1)c1c[nH]c2ccc(Cl)cc12` (stereo not drawn) [compound 12], the IC50 at p53/hDM2 (setting [5]) was 8 µM; on p53/hDM2 (setting [3]) it was 8 ± 4 µM; at p53/hDM2 (setting [4]), about 8 µM. As to `CC(C)CNC(=O)c1[nH]c2ccc(Cl)cc2c1C(CC(=O)NCCc1ccccn1)c1ccc(Cl)s1` (stereo not drawn) [11i], the IC50 at p53/hDM2 (setting [3]) was over 200 µM. `O=C(CC(c1ccc(Cl)s1)c1c(C(=O)O)[nH]c2ccc(Cl)cc12)NC1CC1c1ccccc1` (stereo not drawn) [compound 14]: the figures for the IC50 at p53/hDM2 (setting [5]), at p53/hDM2 (setting [3]) and on p53/hDM2 (setting [4]) were 2 µM, 2.2 ± 0.5 µM and 2.2 µM, respectively.

Consider `CC(C(=O)NCCc1ccccn1)C(c1ccc(Cl)s1)c1c[nH]c2ccc(Cl)cc12` (stereo not drawn) [anti-10], for which, at p53/hDM2, the ligand efficiency is given as 0.26. For the same compound, the figures for the IC50 on p53/hDM2 (setting [3]) and at p53/hDM2 (setting [4]) were 3.1 ± 0.4 µM and 3.1 µM, respectively. Take `O=C(CC(c1ccc(Cl)s1)c1c(C(=O)O)[nH]c2ccc(Cl)cc12)NCCc1ccccn1` (stereo not drawn) [11b]: the IC50 came out at 3 µM on p53/hDM2 (setting [2]) and 2.9 ± 0.2 µM on p53/hDM2 (setting [3]). This compound displayed a ligand efficiency on p53/hDM2 of 0.26.

`O=C(O)CCNC(=O)c1[nH]c2ccc(Cl)cc2c1C(CC(=O)NCCc1ccccn1)c1ccc(Cl)s1` (stereo not drawn) [11e]: the IC50 at p53/hDM2 (setting [3]) worked out at 14 ± 2 µM. Regarding `O=C(CC(c1ccc(Cl)s1)c1c[nH]c2cc(Cl)ccc12)NCCc1ccccc1` (stereo not drawn) [8b], on p53/hDM2 (setting [1]), the IC50 turned out to be 18 ± 11 µM. As for `COCCNC(=O)CC(c1ccc(Cl)s1)c1c[nH]c2ccc(Cl)cc12` (stereo not drawn) [7d], at p53/hDM2 (setting [1]), the IC50 was over 200 µM. In the case of `O=C(CC(c1ccc(Cl)s1)c1c(Br)[nH]c2cc(Cl)ccc12)NCCc1ccccn1` (stereo not drawn) [11a], the IC50 at p53/hDM2 (setting [2]) came to 2 µM; on p53/hDM2 (setting [3]), 1.7 ± 0.2 µM; on p53/hDM2 (setting [4]) it was 1 µM. In addition, on p53/hDM2, the ligand efficiency amounted to 0.28.

For the compound `CC(C(=O)N1CCC(c2ccccn2)C1)C(c1ccc(Cl)s1)c1c[nH]c2cc(Cl)ccc12` (stereo not drawn) [compound 13], the figures for the IC50 at p53/hDM2 (setting [5]), on p53/hDM2 (setting [3]) and on p53/hDM2 (setting [4]) were 1 µM, 1.2 ± 0.4 µM and 1.2 µM, respectively.

Turning to `COCCNC(=O)CC(c1ccc(Cl)s1)c1c[nH]c2cc(Cl)ccc12` (stereo not drawn) [8c], the IC50 at p53/hDM2 (setting [1]) turned out to be 86 ± 29 µM.

On to `O=C(CC(c1ccc(Cl)s1)c1c[nH]c2ccc(Cl)cc12)NCCc1ccccn1` (stereo not drawn) [A1], for which, on BID/MCL-1, the “inhibition in FA competition assay for BID/MCL-1” value is “no inhibition”. Moreover, the IC50 on p53/hDM2 (setting [2]) is 8 µM; at p53/hDM2 (setting [1]), 7.9 ± 0.9 µM; at p53/hDM2 (setting [4]) it was 7.9 µM and 8 µM. For the same compound, the ligand efficiency at p53/hDM2 is given as 0.24.
